This note sets out measurements from patent EP0551675A1, “Oral hygiene compositions containing antiplaque agents” (UNILEVER N.V., priority 1991, dated 1993).

Series [1] can be described thus: Foam height, Ross-Miles method. Format: physicochemical. The note with it: 45°C, water with 120 ppm hardness; for Initial Height: foam production, measured initially; for After 10 Minutes: foam stability, height after 10 minutes. As for the experimental part: Since most of the foaming data on surfactants is typically obtained by the Ross-Miles method (Ross, J. and Miles, G.D., am. Soc. for Testing Material Method D1173-53 Philadelphia, PA. (1953); Oil & Soap (1958) 62:1260) the foaming ability of these surfactants was also acquired using this method.
In the Ross-Miles method, 200 mL of a solution of surfactant contained in a pipette of specified dimensions with a 2.9-mm-i.d. orifice is allowed to fall 90 cm onto 50 mL of the same solution contained in a cylindrical vessel maintained at a given temperature (often 60°C) by means of a water jacket. The height of the foam produced in the cylindrical vessel is read immediately after all the solution has run out of the pipette (initial foam height) and then again after a given amount of time (generally, 5 min).
Using this method, the foam production (measured initially) and foam stability (the height after 10 minutes) are reported. […] The foam height is represented in millimeters (mm).

Series [2] is described as follows: Krafft point of a 1% dispersion in water. Format: physicochemical. The following applies: 1% dispersion of the surfactant in water. The protocol: The temperature at and above which surfactants begin to form micelles instead of precipitates is referred to as Krafft point (Tk) and at this temperature the solubility of a surfactant becomes equal to its CMC.
Krafft point was measured by preparing a 1% dispersion of the surfactant in water. If the surfactant was soluble at room temperature, the solution was cooled to 0°C. […] If it precipitated out, the solution was slowly warmed with stirring in a water bath. The temperature at which the precipitate dissolved was determined to be the Krafft point.
If the Krafft point was above room temperature, the solution was first heated rapidly to dissolve all the surfactant. It was then cooled until precipitation occurred, and was then slowly warmed to determine the Krafft point described above.

The subject of series [3] is Veillonella dispar. Put plainly: Antimicrobial activity determination (MIC). Format: cell-based. The following applies: BHI broth, aerobic, 37 degrees C, read-out: Minimimum Inhibitory Concentrations. The protocol: (§1) The antimicrobial activity of the targeted agents was assessed by determining the minimum inhibitory concentration (MIC). Pure cultures of various strains of oral bacterial species as indicated in Table 3 were combined with serial dilutions of the targeted agents in beef heart infusion broth (BHI); starting bacterial concentrations were approximately 1.0 x 10E6 colony forming units (CFU) per ml. The mixtures were incubated aerobically at 37 degrees C and the optical density (540 nm, path length 1cm) of the cultures was measured at 0.0, 24.0 and 48.0 hr using Bausch and Lomb Spec 20 variable wavelength spectrophotometer.

In series [4] the test system is Streptococcus sobrinus. Put plainly: Antimicrobial activity determination (MIC). Format: cell-based. The following applies: BHI broth, aerobic, 37 degrees C, read-out: Minimimum Inhibitory Concentrations. The protocol: as §1
In series [5] the test system is Candida albicans. As to the kind of experiment: Antimicrobial activity determination (MIC). Format: cell-based. The note with it: BHI broth, aerobic, 37 degrees C, read-out: Minimimum Inhibitory Concentrations. As for the experimental part: as §1
The subject of series [6] is Streptococcus sanguis. As to the kind of experiment: Antimicrobial activity determination (MIC). The format is cell-based. The following applies: Streptococcus, Streptococcus sanguis; BHI broth, aerobic, 37 degrees C; read-out: Minimimum Inhibitory Concentrations. As for the experimental part:
as §1

In series [7] the test system is Prevotella intermedius. As to the kind of experiment: Antimicrobial activity determination (MIC). The format is cell-based. The note with it: Prevotella intermedius; BHI broth, aerobic, 37 degrees C; read-out: Minimimum Inhibitory Concentrations. As for the experimental part:
as §1

Series [8] deals with Actinomyces naeslundii. Put plainly: Antimicrobial activity determination (MIC). The format is cell-based. The note with it: BHI broth, aerobic, 37 degrees C, read-out: Minimimum Inhibitory Concentrations. As for the experimental part:
as §1

The test system of series [9] is Porphyromonas gingivalis. As to the kind of experiment: Antimicrobial activity determination (MIC). The format is cell-based. The note with it: BHI broth, aerobic, 37 degrees C, read-out: Minimimum Inhibitory Concentrations. As for the experimental part:
as §1

For series [10], the system named is Neisseria subflava. As to the kind of experiment: Antimicrobial activity determination (MIC). Format: cell-based. The following applies: BHI broth, aerobic, 37 degrees C, read-out: Minimimum Inhibitory Concentrations. As for the experimental part: as §1

Converted amounts (≈) assume the structure as drawn.

Take `CCCCCCCCCCCCNC(=O)[C@H](O)[C@@H](O)[C@H](O[C@@H]1O[C@H](CO)[C@H](O)[C@H](O)[C@H]1O)[C@H](O)CO` [Dodecyl lactobionamide, N-dodecyl lactobionamide]: in [1], the “Initial Height” value is 160 mm. Besides, in series [1], the “After 10 Minutes” value was found to be 6 mm. Besides, the “Krafft Point” value in series [2] came to 38 °C. Further, the MIC in series [3] came to 60 µg/mL (≈ 114 µM); in [4], 125 µg/mL (≈ 238 µM); in series [5], 125 µg/mL (≈ 238 µM); in series [6], 125 µg/mL (≈ 238 µM); in series [7], 250 µg/mL (≈ 476 µM); in series [8], 60 µg/mL (≈ 114 µM). For the same molecule, the MIC in [9] worked out at 30 µg/mL (≈ 57.1 µM); in [10] it was 250 µg/mL (≈ 476 µM).

As for `CCCCCCCCCCNC(=O)[C@H](O)[C@@H](O)[C@H](O[C@@H]1O[C@H](CO)[C@H](O)[C@H](O)[C@H]1O)[C@H](O)CO` [Decyl lactobionamide, N-decyl lactobionamide], in series [1], the “Initial Height” value is 150 mm. In addition, in [1], the “After 10 Minutes” value came out at 5 mm. Further, the “Krafft Point” value in [2] worked out at 0 °C. In addition, the MIC in series [3] is 500 µg/mL (≈ 1000 µM); in series [4], over 500 µg/mL; in [5], 500 µg/mL (≈ 1000 µM); in series [6], over 500 µg/mL; in series [7], over 500 µg/mL; in [8], over 500 µg/mL. Further, the MIC in [10] was 500 µg/mL (≈ 1000 µM).
